According to publication PMC10882719 (Frontiers in Neuroscience, 2024):
Where two headings read alike, the source gives them in different places.

What was measured:
Type in all cases: cell-based
[1] = biological target: T1, 168 GPCRs (Homo sapiens, UniProt P30872); details: SSTR1
T1 construct: host or cells: PathHunter cell lines

[2] = biological target: T2, 168 GPCRs (Homo sapiens, UniProt P61073)
T2 construct: host or cells: PathHunter cell lines

[3] = biological target: T3, 168 GPCRs (Homo sapiens, UniProt P49019); details: GPR109B
T3 construct: host or cells: PathHunter cell lines

[4] = biological target: T4, 168 GPCRs (Homo sapiens, UniProt P30989); details: NTSR1
T4 construct: host or cells: PathHunter cell lines

[5] = biological target: T5, 168 GPCRs (Homo sapiens, UniProt P51582); details: P2RY4
T5 construct: host or cells: PathHunter cell lines

[6] = biological target: T6, 168 GPCRs (Homo sapiens, UniProt Q16581)
T6 construct: host or cells: PathHunter cell lines
T6 sequence (Q16581 1-482): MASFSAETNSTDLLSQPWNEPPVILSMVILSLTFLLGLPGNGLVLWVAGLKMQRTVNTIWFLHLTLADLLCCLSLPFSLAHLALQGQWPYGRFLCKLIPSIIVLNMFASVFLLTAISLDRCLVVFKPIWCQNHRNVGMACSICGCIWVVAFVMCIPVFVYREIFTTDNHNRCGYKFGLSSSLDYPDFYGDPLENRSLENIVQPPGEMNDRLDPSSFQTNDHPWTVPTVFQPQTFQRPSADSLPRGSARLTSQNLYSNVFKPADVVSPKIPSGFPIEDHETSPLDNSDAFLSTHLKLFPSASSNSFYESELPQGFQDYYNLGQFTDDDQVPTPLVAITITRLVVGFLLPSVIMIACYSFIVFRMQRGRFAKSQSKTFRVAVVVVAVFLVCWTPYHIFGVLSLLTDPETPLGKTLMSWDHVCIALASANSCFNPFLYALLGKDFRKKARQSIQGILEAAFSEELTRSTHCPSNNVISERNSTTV

[7] = biological target: T7, 168 GPCRs (Homo sapiens, UniProt P43088); details: PTGFR
T7 construct: host or cells: PathHunter cell lines

[8] = biological target: T8, 168 GPCRs (Homo sapiens, UniProt Q9HC97)
T8 construct: host or cells: PathHunter cell lines

[9] = biological target: T9, 168 GPCRs (Homo sapiens, UniProt O43193); details: MLNR
T9 construct: host or cells: PathHunter cell lines

[10] = biological target: T10, 168 GPCRs (Homo sapiens, UniProt P25105); details: PTAFR
T10 construct: host or cells: PathHunter cell lines

[11] = biological target: T11, 168 GPCRs (Homo sapiens, UniProt Q96LB1)
T11 construct: host or cells: PathHunter cell lines
T11 sequence (Q96LB1 1-330): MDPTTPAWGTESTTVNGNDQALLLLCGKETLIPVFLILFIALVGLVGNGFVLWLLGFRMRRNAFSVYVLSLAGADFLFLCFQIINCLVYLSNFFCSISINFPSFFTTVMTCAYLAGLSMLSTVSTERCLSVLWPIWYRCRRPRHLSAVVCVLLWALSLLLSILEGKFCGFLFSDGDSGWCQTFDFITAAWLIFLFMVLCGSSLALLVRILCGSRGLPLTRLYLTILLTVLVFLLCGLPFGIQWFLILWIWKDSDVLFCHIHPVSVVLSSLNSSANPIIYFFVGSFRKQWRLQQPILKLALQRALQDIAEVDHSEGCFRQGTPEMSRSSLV

[12] = biological target: T12, 168 GPCRs (Homo sapiens, UniProt P28336); details: NMBR
T12 construct: host or cells: PathHunter cell lines
T12 sequence (P28336 whole entry): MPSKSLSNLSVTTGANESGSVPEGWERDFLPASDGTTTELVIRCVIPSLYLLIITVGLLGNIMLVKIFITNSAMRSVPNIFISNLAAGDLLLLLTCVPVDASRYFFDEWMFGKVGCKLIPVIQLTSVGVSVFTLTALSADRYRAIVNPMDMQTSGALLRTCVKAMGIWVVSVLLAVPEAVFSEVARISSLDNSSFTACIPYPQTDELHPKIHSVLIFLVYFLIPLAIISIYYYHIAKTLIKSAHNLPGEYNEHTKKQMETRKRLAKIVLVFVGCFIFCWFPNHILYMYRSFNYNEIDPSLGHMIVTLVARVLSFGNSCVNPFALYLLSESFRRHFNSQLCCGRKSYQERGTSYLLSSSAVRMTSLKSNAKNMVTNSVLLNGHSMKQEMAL

T8 sequence (Q9HC97 whole entry): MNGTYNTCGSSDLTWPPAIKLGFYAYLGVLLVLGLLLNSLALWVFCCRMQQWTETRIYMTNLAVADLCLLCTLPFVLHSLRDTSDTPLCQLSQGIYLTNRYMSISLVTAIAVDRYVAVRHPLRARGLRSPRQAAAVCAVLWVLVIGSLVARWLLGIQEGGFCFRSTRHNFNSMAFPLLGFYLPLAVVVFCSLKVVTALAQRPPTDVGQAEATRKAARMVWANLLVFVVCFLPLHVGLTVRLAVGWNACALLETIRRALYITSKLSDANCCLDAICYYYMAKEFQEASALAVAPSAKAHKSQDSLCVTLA
T5 sequence (P51582 whole entry): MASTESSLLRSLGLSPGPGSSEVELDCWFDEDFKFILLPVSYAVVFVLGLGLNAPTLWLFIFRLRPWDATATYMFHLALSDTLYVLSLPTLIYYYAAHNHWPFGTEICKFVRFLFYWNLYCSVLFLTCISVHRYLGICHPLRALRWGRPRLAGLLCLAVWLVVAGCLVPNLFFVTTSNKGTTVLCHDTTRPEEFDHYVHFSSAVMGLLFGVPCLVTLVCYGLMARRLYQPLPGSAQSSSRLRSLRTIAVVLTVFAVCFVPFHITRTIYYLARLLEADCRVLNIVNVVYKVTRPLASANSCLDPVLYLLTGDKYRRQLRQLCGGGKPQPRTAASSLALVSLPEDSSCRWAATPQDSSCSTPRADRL
T1 sequence (P30872 whole entry): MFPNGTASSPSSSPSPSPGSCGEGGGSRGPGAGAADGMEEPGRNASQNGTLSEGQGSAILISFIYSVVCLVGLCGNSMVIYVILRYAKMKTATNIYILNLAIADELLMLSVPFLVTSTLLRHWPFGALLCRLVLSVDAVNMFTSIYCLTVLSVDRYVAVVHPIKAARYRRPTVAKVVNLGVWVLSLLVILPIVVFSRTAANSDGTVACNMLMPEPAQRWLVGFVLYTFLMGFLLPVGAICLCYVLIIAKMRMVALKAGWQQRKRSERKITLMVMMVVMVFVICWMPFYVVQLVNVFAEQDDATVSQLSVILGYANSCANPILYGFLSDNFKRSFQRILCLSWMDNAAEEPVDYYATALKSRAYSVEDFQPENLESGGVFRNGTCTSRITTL
T9 sequence (O43193 whole entry): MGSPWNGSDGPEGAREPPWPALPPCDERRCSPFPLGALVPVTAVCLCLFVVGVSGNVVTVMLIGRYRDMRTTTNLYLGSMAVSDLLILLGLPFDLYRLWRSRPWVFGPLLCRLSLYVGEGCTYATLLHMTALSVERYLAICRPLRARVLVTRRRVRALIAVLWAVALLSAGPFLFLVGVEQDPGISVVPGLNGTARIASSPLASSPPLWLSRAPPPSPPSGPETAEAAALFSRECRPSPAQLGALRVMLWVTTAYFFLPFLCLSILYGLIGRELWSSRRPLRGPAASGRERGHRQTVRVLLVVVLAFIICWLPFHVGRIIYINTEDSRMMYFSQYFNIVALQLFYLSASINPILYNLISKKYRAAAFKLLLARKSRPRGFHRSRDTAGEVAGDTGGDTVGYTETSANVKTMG
T3 sequence (P49019 whole entry): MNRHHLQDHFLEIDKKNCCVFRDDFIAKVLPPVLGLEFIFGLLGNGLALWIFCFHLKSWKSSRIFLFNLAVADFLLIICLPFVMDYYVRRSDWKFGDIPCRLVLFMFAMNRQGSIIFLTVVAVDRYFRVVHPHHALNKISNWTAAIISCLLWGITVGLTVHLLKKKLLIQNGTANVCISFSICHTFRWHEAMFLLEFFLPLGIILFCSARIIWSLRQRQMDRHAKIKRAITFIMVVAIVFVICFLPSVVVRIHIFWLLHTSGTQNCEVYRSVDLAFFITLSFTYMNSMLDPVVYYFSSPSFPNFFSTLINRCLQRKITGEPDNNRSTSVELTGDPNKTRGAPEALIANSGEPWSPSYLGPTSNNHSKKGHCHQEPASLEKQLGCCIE
T4 sequence (P30989 whole entry): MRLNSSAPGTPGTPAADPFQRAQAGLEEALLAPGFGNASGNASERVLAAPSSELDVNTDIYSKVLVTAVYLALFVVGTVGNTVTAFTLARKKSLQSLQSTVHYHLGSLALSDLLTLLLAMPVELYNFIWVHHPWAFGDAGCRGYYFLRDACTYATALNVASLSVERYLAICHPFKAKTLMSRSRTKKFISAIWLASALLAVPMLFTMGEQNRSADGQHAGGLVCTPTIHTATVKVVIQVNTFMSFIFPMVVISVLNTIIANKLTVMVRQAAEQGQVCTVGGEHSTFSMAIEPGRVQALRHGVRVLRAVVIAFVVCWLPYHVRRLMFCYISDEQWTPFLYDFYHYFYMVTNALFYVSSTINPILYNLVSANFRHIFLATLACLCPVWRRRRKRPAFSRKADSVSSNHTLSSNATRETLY
T7 sequence (P43088 whole entry): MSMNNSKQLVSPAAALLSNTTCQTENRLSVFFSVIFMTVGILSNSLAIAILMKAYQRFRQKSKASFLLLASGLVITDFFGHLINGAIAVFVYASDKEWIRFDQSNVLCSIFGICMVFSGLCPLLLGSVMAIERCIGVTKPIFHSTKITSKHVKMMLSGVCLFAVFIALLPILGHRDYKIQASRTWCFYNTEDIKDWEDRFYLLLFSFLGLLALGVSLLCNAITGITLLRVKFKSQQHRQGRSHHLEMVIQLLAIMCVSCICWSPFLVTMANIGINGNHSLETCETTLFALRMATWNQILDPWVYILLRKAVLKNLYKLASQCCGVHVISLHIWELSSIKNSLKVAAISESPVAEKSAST
T10 sequence (P25105 whole entry): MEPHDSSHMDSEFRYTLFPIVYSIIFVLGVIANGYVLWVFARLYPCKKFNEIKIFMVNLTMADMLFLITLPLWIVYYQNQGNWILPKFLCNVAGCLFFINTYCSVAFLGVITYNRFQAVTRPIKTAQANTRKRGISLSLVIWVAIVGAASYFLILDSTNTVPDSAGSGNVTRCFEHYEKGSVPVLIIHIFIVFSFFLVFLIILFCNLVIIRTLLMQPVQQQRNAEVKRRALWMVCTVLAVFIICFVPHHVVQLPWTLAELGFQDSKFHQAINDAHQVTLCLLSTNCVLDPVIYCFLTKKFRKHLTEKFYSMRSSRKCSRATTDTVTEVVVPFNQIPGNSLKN
T2 sequence (P61073 whole entry): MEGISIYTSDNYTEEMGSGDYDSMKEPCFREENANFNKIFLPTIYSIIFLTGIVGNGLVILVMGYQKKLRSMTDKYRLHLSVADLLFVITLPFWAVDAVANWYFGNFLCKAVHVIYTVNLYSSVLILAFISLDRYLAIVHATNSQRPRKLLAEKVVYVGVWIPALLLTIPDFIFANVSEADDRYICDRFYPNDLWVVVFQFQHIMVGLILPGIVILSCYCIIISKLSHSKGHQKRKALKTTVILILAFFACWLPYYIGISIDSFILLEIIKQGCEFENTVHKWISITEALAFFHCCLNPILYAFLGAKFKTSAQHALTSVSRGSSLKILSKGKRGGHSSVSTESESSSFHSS

Compound: CNC(C)C(=O)c1ccc2c(c1)OCO2 (stereo not drawn) [methylone]
- % Agonist Activity ([1]; Conc 1 uM): -5.3%
- % Antagonist Activity ([1]; Conc 1 uM): 32.4%
- % Agonist Activity ([1]; Conc 10 uM): -7.4%
- % Antagonist Activity ([1]; Conc 10 uM): 20.9%
- % Agonist Activity ([2]; CXCR4, 1 uM): -4%
- % Antagonist Activity ([2]; CXCR4, 1 uM): 10.7%
- % Agonist Activity ([2]; CXCR4, 10 uM): 7%
- % Antagonist Activity ([2]; CXCR4, 10 uM): -4.2%
- % Agonist Activity ([3]; 1 uM): 1%
- % Antagonist Activity ([3]; 1 uM): -16.5%
- % Agonist Activity ([3]; 10 uM): 0.5%
- % Antagonist Activity ([3]; 10 uM): -20.2%
- % Agonist Activity ([4]; Conc 1 uM): -4.7%
- % Antagonist Activity ([4]; Conc 1 uM): -0.7%
- % Agonist Activity ([4]; Conc 10 uM): -3.5%
- % Antagonist Activity ([4]; Conc 10 uM): -1.7%
- % Agonist Activity ([5]; Conc 1 uM): -3.3%
- % Antagonist Activity ([5]; Conc 1 uM): 15.1%
- % Agonist Activity ([5]; Conc 10 uM): -4.1%
- % Antagonist Activity ([5]; Conc 10 uM): 17.5%
- % Agonist Activity ([6]; C3AR1, 1 uM): -0.1%
- % Antagonist Activity ([6]; C3AR1, 1 uM): 2.5%
- % Agonist Activity ([6]; C3AR1, 10 uM): 0%
- % Antagonist Activity ([6]; C3AR1, 10 uM): 0.3%
- % Agonist Activity ([7]; Conc 1 uM): 0.3%
- % Antagonist Activity ([7]; Conc 1 uM): 0.9%
- % Agonist Activity ([7]; Conc 10 uM): -0.2%
- % Antagonist Activity ([7]; Conc 10 uM): 0%
- % Agonist Activity ([8]; GPR35, 1 uM): 2.2%
- % Antagonist Activity ([8]; GPR35, 1 uM): 13.2%
- % Agonist Activity ([8]; GPR35, 10 uM): 2.5%
- % Antagonist Activity ([8]; GPR35, 10 uM): 7.3%
- % Agonist Activity ([9]; 1 uM): -1.5%
- % Antagonist Activity ([9]; 1 uM): 15.6%
- % Agonist Activity ([9]; 10 uM): -1%
- % Antagonist Activity ([9]; 10 uM): 12.3%
- % Agonist Activity ([10]; Conc 1 uM): -1.3%
- % Antagonist Activity ([10]; Conc 1 uM): 2%
- % Agonist Activity ([10]; Conc 10 uM): -2.6%
- % Antagonist Activity ([10]; Conc 10 uM): -6.7%
- % Agonist Activity ([11]; MRGPRX2, 1 uM): 1.4%
- % Antagonist Activity ([11]; MRGPRX2, 1 uM): 16.2%
- % Agonist Activity ([11]; MRGPRX2, 10 uM): 0.7%
- % Antagonist Activity ([11]; MRGPRX2, 10 uM): 8.9%
- % Agonist Activity ([12]; 1 uM): 1.1%
- % Antagonist Activity ([12]; 1 uM): 10.3%
- % Agonist Activity ([12]; 10 uM): 1.2%
- % Antagonist Activity ([12]; 10 uM): 13.2%

Compound: CNC(C)Cc1ccc2c(c1)OCO2 (stereo not drawn) [MDMA, 3,4-Methylenedioxy methamphetamine, reference compound]
- % Agonist Activity ([1]; Conc 1 uM): -9%
- % Antagonist Activity ([1]; Conc 1 uM): 5.6%
- % Agonist Activity ([1]; Conc 10 uM): -12.3%
- % Antagonist Activity ([1]; Conc 10 uM): 7.5%
- % Agonist Activity ([2]; CXCR4, 1 uM): 3.1%
- % Antagonist Activity ([2]; CXCR4, 1 uM): 19.6%
- % Agonist Activity ([2]; CXCR4, 10 uM): 2.5%
- % Antagonist Activity ([2]; CXCR4, 10 uM): 14.6%
- % Agonist Activity ([3]; 1 uM): 0.7%
- % Antagonist Activity ([3]; 1 uM): -15.2%
- % Agonist Activity ([3]; 10 uM): 1.4%
- % Antagonist Activity ([3]; 10 uM): -11.4%
- % Agonist Activity ([4]; Conc 1 uM): -0.8%
- % Antagonist Activity ([4]; Conc 1 uM): 8.7%
- % Agonist Activity ([4]; Conc 10 uM): 1.2%
- % Antagonist Activity ([4]; Conc 10 uM): 0.5%
- % Agonist Activity ([5]; Conc 1 uM): -4.2%
- % Antagonist Activity ([5]; Conc 1 uM): 5.7%
- % Agonist Activity ([5]; Conc 10 uM): -7.2%
- % Antagonist Activity ([5]; Conc 10 uM): -0.6%
- % Agonist Activity ([6]; C3AR1, 1 uM): 0.2%
- % Antagonist Activity ([6]; C3AR1, 1 uM): 12.9%
- % Agonist Activity ([6]; C3AR1, 10 uM): 0.2%
- % Antagonist Activity ([6]; C3AR1, 10 uM): 9.8%
- % Agonist Activity ([7]; Conc 1 uM): -1.5%
- % Antagonist Activity ([7]; Conc 1 uM): -1.5%
- % Agonist Activity ([7]; Conc 10 uM): -0.4%
- % Antagonist Activity ([7]; Conc 10 uM): 7.8%
- % Agonist Activity ([8]; GPR35, 1 uM): 0.3%
- % Antagonist Activity ([8]; GPR35, 1 uM): -1.1%
- % Agonist Activity ([8]; GPR35, 10 uM): -1.5%
- % Antagonist Activity ([8]; GPR35, 10 uM): 4.6%
- % Agonist Activity ([9]; 1 uM): -0.3%
- % Antagonist Activity ([9]; 1 uM): 6.2%
- % Agonist Activity ([9]; 10 uM): -0.1%
- % Antagonist Activity ([9]; 10 uM): 16.3%
- % Agonist Activity ([10]; Conc 1 uM): 0.6%
- % Antagonist Activity ([10]; Conc 1 uM): 11.4%
- % Agonist Activity ([10]; Conc 10 uM): 0.4%
- % Antagonist Activity ([10]; Conc 10 uM): 12.1%
- % Agonist Activity ([11]; MRGPRX2, 1 uM): -0.8%
- % Antagonist Activity ([11]; MRGPRX2, 1 uM): -6%
- % Agonist Activity ([11]; MRGPRX2, 10 uM): -0.8%
- % Antagonist Activity ([11]; MRGPRX2, 10 uM): 1.9%
- % Agonist Activity ([12]; 1 uM): 0%
- % Antagonist Activity ([12]; 1 uM): -2.5%
- % Agonist Activity ([12]; 10 uM): 0.1%
- % Antagonist Activity ([12]; 10 uM): 4.3%
